Experimental data reported in US9993464B2 (SANOFI, priority 2011, dated 2018).
“And” between values parts separate entries of the source, which are not always exact repeats. Equal values may be shown once. Read-outs that look alike come from different tables or passages of the source.

How the values were obtained:
[1] = Level of impurities in dependency on pH and repeated autoclaving (HPLC), Example 6; format: physicochemical
Protocol: The appropriate pH value was adjusted by using sodium hydroxide solution (1 M sodium hydroxide) or diluted hydrochloric acid (1 M hydrochloric acid). […] HP Zorbax SB-C18, 3.5 μm • Column material: stainless steel • Column length: 150 mm • Column internal diameter: 4.6 mm • Equilibration of the column: Column must be rinsed with mobile phase B (% B=25) for at least 60 minutes at a flow rate of 1 mL/min prior to sample injection. • Storage of the column: Column can be stored in acetonitrile/water=20/80 (v/v) Mobile Phase A […] The mobile phase was filtered through a 1.5 μm filter. Typically, add 500 mL of mobile phase A to 500 mL of acetonitrile. Mix and degas. [table] Procedure • Flow rate: 1 mL/min • Injection volume: 40 μl • Auto sampler temperature: Set autosampler temperature at +12° C. • Column temperature: […]

[2] = Level of impurities in dependency on Otamixaban concentration and autoclaving (HPLC), Example 7; format: physicochemical; conditions: autoclaving
From the text: The appropriate pH value was adjusted by using sodium hydroxide solution (1 M sodium hydroxide) or diluted hydrochloric acid (1 M hydrochloric acid).

[3] = Level of impurities in dependency on pH and storage time (HPLC), Example 8; format: physicochemical; conditions: 40° C./75% RH
Protocol: The appropriate pH value was adjusted by using sodium hydroxide solution (1 M sodium hydroxide) or diluted hydrochloric acid (1 M hydrochloric acid). The prepared vials were autoclaved one time and were stored at 40° C. and 75% RH (relative humidity).

models of thrombosis [4] = conditions: rodent; cited from earlier work
models of thrombosis [5] = conditions: canine; cited from earlier work
models of thrombosis [6] = conditions: porcine; cited from earlier work
acute coronary syndrome = conditions: humans; cited from earlier work
[7] = test system: prothrombin fragments 1+2; conditions: dose-ranging clinical trial; highest dose regimen; cited from earlier work
factor Xa = target: T1, factor Xa (Homo sapiens, UniProt P00742); conditions: patients with stable coronary artery disease; cited from earlier work
T1 construct: host or cells: blood of patients (in vivo, clinical trial)
T1 sequence (P00742 235-488 limits assumed): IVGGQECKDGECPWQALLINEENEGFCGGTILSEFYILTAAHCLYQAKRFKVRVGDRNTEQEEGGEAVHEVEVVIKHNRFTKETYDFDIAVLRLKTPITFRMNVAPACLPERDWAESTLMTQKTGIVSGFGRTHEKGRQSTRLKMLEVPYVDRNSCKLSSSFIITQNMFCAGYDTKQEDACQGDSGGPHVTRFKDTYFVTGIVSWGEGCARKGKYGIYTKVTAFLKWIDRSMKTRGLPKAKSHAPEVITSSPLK
T1 sequence (P00742 41-179 partner limits assumed): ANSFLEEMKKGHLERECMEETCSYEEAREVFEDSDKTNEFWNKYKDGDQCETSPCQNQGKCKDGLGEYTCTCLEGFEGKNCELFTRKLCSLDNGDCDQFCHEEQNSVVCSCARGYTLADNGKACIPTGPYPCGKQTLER

[8] = pH 2.5, number of autoclaving 0
[9] = pH 2.5, number of autoclaving 1
[10] = pH 3.2, number of autoclaving 0
[11] = pH 3.2, number of autoclaving 1
[12] = pH 3.2, number of autoclaving 3
[13] = pH 3.5, number of autoclaving 0
[14] = pH 3.5, number of autoclaving 1
[15] = pH 3.7, number of autoclaving 0
[16] = pH 3.7, number of autoclaving 1
[17] = pH 3.7, number of autoclaving 3
[18] = pH 4.0, number of autoclaving 0
[19] = pH 4.0, number of autoclaving 1
[20] = pH 4.2, number of autoclaving 0
[21] = pH 4.5, number of autoclaving 0
[22] = pH 4.5, number of autoclaving 1
[23] = pH 4.7, number of autoclaving 0
[24] = pH 4.7, number of autoclaving 2

SMILES: COC(=O)[C@H](Cc1cccc(C(=N)N)c1)[C@@H](C)NC(=O)c1ccc(-c2cc[n+]([O-])cc2)cc1 (mixture of isomers) [Otamixaban, Methyl (2R,3R)-2-{3-[amino(imino)methyl]benzyl}-3-{[4-(1-oxidopyridin-4-yl)benzoyl]amino}butanoate]
- Increase of Formula II (carbamimidoyl-benzyl butyric acid) [1, 8]: 0.10%
- Increase of Formula III (carbamoyl-benzyl butyric acid methyl ester) [1, 8]: 0.39%
- Increase of Formula II (carbamimidoyl-benzyl butyric acid) [1, 9]: 0.33%
- Increase of Formula III (carbamoyl-benzyl butyric acid methyl ester) [1, 9]: 0.71%
- Increase of Formula II (carbamimidoyl-benzyl butyric acid) ([1]; pH 2.5, number of autoclaving 2): 0.56%
- Increase of Formula III (carbamoyl-benzyl butyric acid methyl ester) ([1]; pH 3.0, number of autoclaving 0): 0.39%
- Increase of Formula III (carbamoyl-benzyl butyric acid methyl ester) ([1]; pH 3.0, number of autoclaving 1): 0.74%
- Increase of Formula II (carbamimidoyl-benzyl butyric acid) [1, 10]: 0.08%
- Increase of Formula III (carbamoyl-benzyl butyric acid methyl ester) [1, 10]: 0.39%
- Increase of Formula II (carbamimidoyl-benzyl butyric acid) [1, 11]: 0.15%
- Increase of Formula III (carbamoyl-benzyl butyric acid methyl ester) [1, 11]: 0.76%
- Increase of Formula II (carbamimidoyl-benzyl butyric acid) ([1]; pH 3.2, number of autoclaving 2): 0.21%
- Increase of Formula II (carbamimidoyl-benzyl butyric acid) [1, 12]: 0.27%
- Increase of Formula III (carbamoyl-benzyl butyric acid methyl ester) [1, 12]: 1.50%
- Increase of Formula II (carbamimidoyl-benzyl butyric acid) [1, 13]: 0.08%
- Increase of Formula III (carbamoyl-benzyl butyric acid methyl ester) [1, 13]: 0.39%
- Increase of Formula II (carbamimidoyl-benzyl butyric acid) [1, 14]: 0.12%
- Increase of Formula III (carbamoyl-benzyl butyric acid methyl ester) [1, 14]: 0.81%
- Increase of Formula II (carbamimidoyl-benzyl butyric acid) ([1]; pH 3.5, number of autoclaving 2): 0.17%
- Increase of Formula II (carbamimidoyl-benzyl butyric acid) ([1]; pH 3.5, number of autoclaving 3): 0.21%
- Increase of Formula II (carbamimidoyl-benzyl butyric acid) [1, 15]: 0.08%
- Increase of Formula III (carbamoyl-benzyl butyric acid methyl ester) [1, 15]: 0.39%
- Increase of Formula II (carbamimidoyl-benzyl butyric acid) [1, 16]: 0.11% and 0.12%
- Increase of Formula III (carbamoyl-benzyl butyric acid methyl ester) [1, 16]: 0.87% and 0.84%
- Increase of Formula II (carbamimidoyl-benzyl butyric acid) ([1]; pH 3.7, number of autoclaving 2): 0.16%
- Increase of Formula II (carbamimidoyl-benzyl butyric acid) [1, 17]: 0.20% and 0.19%
- Increase of Formula III (carbamoyl-benzyl butyric acid methyl ester) [1, 17]: 1.80%
- Increase of Formula II (carbamimidoyl-benzyl butyric acid) [1, 18]: 0.08%
- Increase of Formula III (carbamoyl-benzyl butyric acid methyl ester) [1, 18]: 0.39%
- Increase of Formula II (carbamimidoyl-benzyl butyric acid) [1, 19]: 0.12%
- Increase of Formula III (carbamoyl-benzyl butyric acid methyl ester) [1, 19]: 0.95%
- Increase of Formula II (carbamimidoyl-benzyl butyric acid) ([1]; pH 4.0, number of autoclaving 2): 0.16%
- Increase of Formula II (carbamimidoyl-benzyl butyric acid) ([1]; pH 4.0, number of autoclaving 3): 0.19%
- Increase of Formula II (carbamimidoyl-benzyl butyric acid) [1, 20]: 0.07%
- Increase of Formula III (carbamoyl-benzyl butyric acid methyl ester) [1, 20]: 0.39%
- Increase of Formula II (carbamimidoyl-benzyl butyric acid) ([1]; pH 4.2, number of autoclaving 1): 0.13%
- Increase of Formula II (carbamimidoyl-benzyl butyric acid) ([1]; pH 4.2, number of autoclaving 2): 0.18%
- Increase of Formula II (carbamimidoyl-benzyl butyric acid) ([1]; pH 4.2, number of autoclaving 3): 0.22%
- Increase of Formula II (carbamimidoyl-benzyl butyric acid) [1, 21]: 0.08%
- Increase of Formula III (carbamoyl-benzyl butyric acid methyl ester) [1, 21]: 0.39%
- Increase of Formula II (carbamimidoyl-benzyl butyric acid) [1, 22]: 0.15%
- Increase of Formula III (carbamoyl-benzyl butyric acid methyl ester) [1, 22]: 1.40%
- Increase of Formula II (carbamimidoyl-benzyl butyric acid) ([1]; pH 4.5, number of autoclaving 2): 0.24%
- Increase of Formula II (carbamimidoyl-benzyl butyric acid) ([1]; pH 4.5, number of autoclaving 3): 0.30%
- Increase of Formula II (carbamimidoyl-benzyl butyric acid) [1, 23]: 0.08%
- Increase of Formula III (carbamoyl-benzyl butyric acid methyl ester) [1, 23]: 0.39%
- Increase of Formula II (carbamimidoyl-benzyl butyric acid) ([1]; pH 4.7, number of autoclaving 1): 0.20%
- Increase of Formula II (carbamimidoyl-benzyl butyric acid) [1, 24]: 0.32%
- Increase of Formula III (carbamoyl-benzyl butyric acid methyl ester) [1, 24]: 3.20%
- Increase of Formula II (carbamimidoyl-benzyl butyric acid) ([1]; pH 4.7, number of autoclaving 3): 0.43%
- dependence of Formula III level on Otamixaban concentration or vial volume [2]: independent from the concentration of Otamixaban or vial volume
- Increase of Formula II (carbamimidoyl-benzyl butyric acid) ([3]; pH 2.5, storage time 0 months): 0.33%
- Increase of Formula III (carbamoyl-benzyl butyric acid methyl ester) ([3]; pH 2.5, storage time 0 months): 0.71%
- Increase of Formula III (carbamoyl-benzyl butyric acid methyl ester) ([3]; pH 2.5, storage time 1 months): 0.77%
- Increase of Formula III (carbamoyl-benzyl butyric acid methyl ester) ([3]; pH 2.5, storage time 3 months): 0.86%
- Increase of Formula II (carbamimidoyl-benzyl butyric acid) ([3]; pH 2.5, storage time 6 months): 7.10%
- Increase of Formula III (carbamoyl-benzyl butyric acid methyl ester) ([3]; pH 2.5, storage time 6 months): 0.98%
- Increase of Formula II (carbamimidoyl-benzyl butyric acid) ([3]; pH 3.0, storage time 0 months): 0.18%
- Increase of Formula III (carbamoyl-benzyl butyric acid methyl ester) ([3]; pH 3.0, storage time 0 months): 0.74%
- Increase of Formula II (carbamimidoyl-benzyl butyric acid) ([3]; pH 3.0, storage time 1 months): 0.58%
- Increase of Formula III (carbamoyl-benzyl butyric acid methyl ester) ([3]; pH 3.0, storage time 1 months): 0.82%
- Increase of Formula III (carbamoyl-benzyl butyric acid methyl ester) ([3]; pH 3.0, storage time 3 months): 0.96%
- Increase of Formula II (carbamimidoyl-benzyl butyric acid) ([3]; pH 3.2, storage time 0 months): 0.15%
- Increase of Formula III (carbamoyl-benzyl butyric acid methyl ester) ([3]; pH 3.2, storage time 0 months): 0.76%
- Increase of Formula II (carbamimidoyl-benzyl butyric acid) ([3]; pH 3.2, storage time 1 months): 0.41%
- Increase of Formula III (carbamoyl-benzyl butyric acid methyl ester) ([3]; pH 3.2, storage time 1 months): 0.85%
- Increase of Formula II (carbamimidoyl-benzyl butyric acid) ([3]; pH 3.2, storage time 3 months): 0.93%
- Increase of Formula III (carbamoyl-benzyl butyric acid methyl ester) ([3]; pH 3.2, storage time 3 months): 1.00%
- Increase of Formula II (carbamimidoyl-benzyl butyric acid) ([3]; pH 3.5, storage time 0 months): 0.12%
- Increase of Formula III (carbamoyl-benzyl butyric acid methyl ester) ([3]; pH 3.5, storage time 0 months): 0.81%
- Increase of Formula II (carbamimidoyl-benzyl butyric acid) ([3]; pH 3.5, storage time 1 months): 0.27%
- Increase of Formula III (carbamoyl-benzyl butyric acid methyl ester) ([3]; pH 3.5, storage time 1 months): 0.91%
- Increase of Formula II (carbamimidoyl-benzyl butyric acid) ([3]; pH 3.5, storage time 3 months): 0.55%
- Increase of Formula II (carbamimidoyl-benzyl butyric acid) ([3]; pH 3.5, storage time 6 months): 0.99%
- Increase of Formula II (carbamimidoyl-benzyl butyric acid) ([3]; pH 3.7, storage time 0 months): 0.11%
- Increase of Formula III (carbamoyl-benzyl butyric acid methyl ester) ([3]; pH 3.7, storage time 0 months): 0.87%
- Increase of Formula II (carbamimidoyl-benzyl butyric acid) ([3]; pH 3.7, storage time 1 months): 0.22%
- Increase of Formula III (carbamoyl-benzyl butyric acid methyl ester) ([3]; pH 3.7, storage time 1 months): 0.96%
- Increase of Formula II (carbamimidoyl-benzyl butyric acid) ([3]; pH 3.7, storage time 3 months): 0.42%
- Increase of Formula II (carbamimidoyl-benzyl butyric acid) ([3]; pH 3.7, storage time 6 months): 0.72%
- Increase of Formula II (carbamimidoyl-benzyl butyric acid) ([3]; pH 4.0, storage time 0 months): 0.12%
- Increase of Formula III (carbamoyl-benzyl butyric acid methyl ester) ([3]; pH 4.0, storage time 0 months): 0.95%
- Increase of Formula II (carbamimidoyl-benzyl butyric acid) ([3]; pH 4.0, storage time 1 months): 0.18%
- Increase of Formula II (carbamimidoyl-benzyl butyric acid) ([3]; pH 4.0, storage time 3 months): 0.32%
- Increase of Formula II (carbamimidoyl-benzyl butyric acid) ([3]; pH 4.0, storage time 6 months): 0.52%
- Increase of Formula II (carbamimidoyl-benzyl butyric acid) ([3]; pH 4.2, storage time 0 months): 0.13%
- Increase of Formula II (carbamimidoyl-benzyl butyric acid) ([3]; pH 4.2, storage time 1 months): 0.18%
- Increase of Formula III (carbamoyl-benzyl butyric acid methyl ester) ([3]; pH 4.2, storage time 1 months): 1.20%
- Increase of Formula II (carbamimidoyl-benzyl butyric acid) ([3]; pH 4.2, storage time 3 months): 0.27%
- Increase of Formula II (carbamimidoyl-benzyl butyric acid) ([3]; pH 4.2, storage time 6 months): 0.43%
- Increase of Formula II (carbamimidoyl-benzyl butyric acid) ([3]; pH 4.5, storage time 0 months): 0.15%
- Increase of Formula III (carbamoyl-benzyl butyric acid methyl ester) ([3]; pH 4.5, storage time 0 months): 1.40%
- Increase of Formula II (carbamimidoyl-benzyl butyric acid) ([3]; pH 4.5, storage time 1 months): 0.20%
- Increase of Formula II (carbamimidoyl-benzyl butyric acid) ([3]; pH 4.5, storage time 3 months): 0.30%
- Increase of Formula II (carbamimidoyl-benzyl butyric acid) ([3]; pH 4.5, storage time 6 months): 0.44%
- Increase of Formula II (carbamimidoyl-benzyl butyric acid) ([3]; pH 4.7, storage time 0 months): 0.20%
- Increase of Formula II (carbamimidoyl-benzyl butyric acid) ([3]; pH 4.7, storage time 1 months): 0.25%
- Increase of Formula II (carbamimidoyl-benzyl butyric acid) ([3]; pH 4.7, storage time 3 months): 0.36%
- Increase of Formula II (carbamimidoyl-benzyl butyric acid) ([3]; pH 4.7, storage time 6 months): 0.52%
- efficacy in models of thrombosis (models of thrombosis [4]): highly efficacious
- efficacy in models of thrombosis (models of thrombosis [5]): highly efficacious
- efficacy in models of thrombosis (models of thrombosis [6]): highly efficacious
- clinical findings: efficacy, safety, tolerability (acute coronary syndrome): efficacious, safe and well tolerated
- reduction of prothrombin fragments 1+2 versus unfractionated heparin [7]: reduced prothrombin fragments 1+2 significantly more than unfractionated heparin
- factor Xa inhibition in patients (factor Xa): dose-dependent, rapid direct factor Xa inhibition
